Experimental data taken from paper PMC6273394, “Discovery of a New Class of Sortase A Transpeptidase Inhibitors to Tackle Gram-Positive Pathogens: 2-(2-Phenylhydrazinylidene)alkanoic Acids and Related Derivatives” (Molecules, 2016).
Like-named read-outs stand apart in the source and are kept apart here.

Experiments:
S. aureus ATCC 29213 = assay: Interference with biofilm formation assay (safranin method); format: cell-based; details: 100 µM compound, 24 h at 37 °C; for inhibition at 100 µM: Staphylococcus aureus, ATCC29213, 24 h, read-out: Percentages of Inhibition of Biofilm Formation S. aureus 29213
Protocol: (§1) The reference strains S. aureus ATCC 29213, S. aureus ATCC 25923, S. aureus ATCC 6538 and S. epidermidis RP62A were used in the assays.
(§2) The staphylococcal strains were tested for their ability to form biofilms. Briefly, bacteria were grown in TSB containing 2% glucose overnight at 37 °C in a shaking bath and then diluted 1:200 to a suspension with optical density (OD) of about 0.040 at 570 nm. Polystyrene 24-well tissue culture plates were filled with 1 mL of diluted suspension and incubated for 24 h at 37 °C. The wells were then washed three times with 1 mL of sterile phosphate-buffered saline (PBS) and stained with 1 mL of safranin 0.1% v/v for 1 min. The excess stain was removed by placing the plates under running tap water. Plates were dried overnight in an inverted position at 37 °C. Safranin-stained adherent bacteria in each well were re-dissolved to homogeneity in 1 mL of 30% v/v glacial acetic acid, and the OD was read at 492 nm. Each assay was performed in triplicate and repeated at least twice.
(§3) The procedure described above was used to evaluate the activity of phenyl-hydrazinylidene-derivatives in the prevention of biofilm formation. Polystyrene 24-well tissue culture plates were filled with 1 mL of diluted bacterial suspension, obtained and diluted as previously described, and a concentration of 100 µM of each compound was directly added to the bacterial suspension at time zero and incubated at 37 °C for 24 h. The wells were then washed and stained with safranin as per the biofilm forming assay. By comparing the average optical density (O.D.) of the growth control wells with the sample wells, the following formula was used to calculate the percentages of inhibition for each concentration of the sample: (2) Inhibition (%)=OD growth control−OD sample/OD growth control×100
(§4) Each assay was performed in triplicate and assays were repeated at least twice.

S. aureus ATCC 6538 = assay: as above; format: cell-based; details: 100 µM compound, 24 h at 37 °C; for inhibition at 100 µM: Staphylococcus aureus, ATCC6538, 24 h, read-out: Percentages of Inhibition of Biofilm Formation S. aureus 6538
Protocol: as §1, §2, §3, §4

S. aureus ATCC 25923 = assay: as above; format: cell-based; details: 100 µM compound, 24 h at 37 °C; for inhibition at 100 µM: Staphylococcus aureus, ATCC25923, 24 h, read-out: Percentages of Inhibition of Biofilm Formation S. aureus 25923
Protocol: as §1, §2, §3, §4

S. epidermidis RP62A = assay: as above; format: cell-based; details: 100 µM compound, 24 h at 37 °C; for inhibition at 100 µM: Staphylococcus epidermidis, RP62A, 24 h, read-out: Percentages of Inhibition of Biofilm Formation S. epidermidis RP62A
Protocol: as §1, §2, §3, §4

S. aureus SrtA = S. aureus SrtA (Staphylococcus aureus, UniProt Q2FV99); assay: biochemical
Chain of S. aureus SrtA (Q2FV99 60-206): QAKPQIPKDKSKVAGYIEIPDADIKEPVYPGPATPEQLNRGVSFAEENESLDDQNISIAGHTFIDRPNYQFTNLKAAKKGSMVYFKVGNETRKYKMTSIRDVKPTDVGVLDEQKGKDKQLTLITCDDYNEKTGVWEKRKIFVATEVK

SMILES	inhibition at 100 µM (S. aureus ATCC 29213) [%]	inhibition at 100 µM (S. aureus ATCC 6538) [%]	inhibition at 100 µM (S. aureus ATCC 25923) [%]	inhibition at 100 µM (S. epidermidis RP62A) [%]	IC50 (S. aureus SrtA) [µM]	melting point [°C]	also measured
CC(=O)/C(=N/Nc1ccccc1)C(N)=O [Compound 7a, (2Z)-3-Oxo-2-(2-phenylhydrazinylidene)butanamide]	48.2 ± 2.9	42.8 ± 1.1	42.1 ± 1.8	45.9 ± 2.1	120	134 to 136	
CN(C)CCC(=O)c1ccc(Cl)c(Cl)c1 [DPDAP, 1-(3,4-dichlorophenyl)-3-dimethylamino-1-propanone, reference compound]					10		
CC(=O)/C(C#N)=N/Nc1ccccc1 [Compound 6a, (2E)-3-Oxo-2-(2-phenylhydrazinylidene)butanenitrile]	46.2 ± 2.3	51 ± 0.9	45.1 ± 2.9	34.8 ± 1.8	80		
CC(=O)/C(=N/Nc1ccc(C)cc1)C(=O)O [Compound 5f, (2Z)-3-Oxo-2-(2-(4-methylphenyl)hydrazinylidene)butanoic acid]	40.8 ± 2.1	40.3 ± 1.9	33.8 ± 2.7	24.4 ± 0.9	100		
CCOC(=O)/C(=N/Nc1cc(OC)c(OC)c(OC)c1)C(C)=O [Compound 1e, Ethyl (2E)-3-Oxo-2-(2-(3,4,5-trimethoxyphenyl)hydrazinylidene)butanoate]					110	78 to 80	
CCOC(=O)/C(=N\Nc1ccccc1)C(=O)c1ccccc1 [Compound 1g, Ethyl (2Z)-3-Oxo-3-phenyl-2-(2-phenylhydrazinylidene)propanoate]							IC50 (S. aureus SrtA; read-out: IC50 (activity as sortase A inhibitors), 10 µM S. aureus sortase A, preincubated 1 h at 37 °C, 50 µM dabcyl-QALPETGEE-edans substrate): > 500 µM
CC(=O)/C(=N/Nc1ccc(Cl)c(Cl)c1)C(=O)O [Compound 5b, (2Z)-3-Oxo-2-(2-(3,4-dichlorophenyl)hydrazinylidene)butanoic acid]	71.3 ± 6.4	22 ± 0.9	39.2 ± 1.4	29.1 ± 1.4	50		
CCOC(=O)/C(=N/Nc1ccc(Cl)c(Cl)c1)C(C)=O [Compound 1b, Ethyl (2E)-3-Oxo-2-(2-(3,4-dichlorophenyl)hydrazinylidene)butanoate]					> 500	100 to 102	
COc1ccc2cc3[n+](cc2c1OC)CCc1cc2c(cc1-3)OCO2 [BC, Berberine chloride, reference compound]					120		
CC(=O)/C(=N/Nc1ccccc1)C(=O)O [Compound 5a, (2Z)-3-Oxo-2-(2-phenylhydrazinylidene)butanoic acid]	~60	~60	~60	~60	80		Percentages of Inhibition of Biofilm Formation S. aureus 29213 (S. aureus ATCC 29213; 100 µM): 62.3 ± 1.5%; Percentages of Inhibition of Biofilm Formation S. aureus 6538 (S. aureus ATCC 6538; 100 µM): 60.1 ± 1.7%; Percentages of Inhibition of Biofilm Formation S. aureus 25923 (S. aureus ATCC 25923; 100 µM): 68.3 ± 2.0%; Percentages of Inhibition of Biofilm Formation S. epidermidis RP62A (S. epidermidis RP62A; 100 µM): 61.5 ± 1.2%
O=C(O)/C(=N\Nc1ccccc1)C(=O)c1ccccc1 [Compound 5g, (2Z)-3-Oxo-3-phenyl-2-(2-phenylhydrazinylidene)propanoic acid]	36.9 ± 1.2	41.9 ± 1.7	36.8 ± 2.1	23.7 ± 0.7	98	136 to 138	
COc1cc(N/N=C(/C(C)=O)C(=O)O)cc(OC)c1OC [Compound 5e, (2Z)-3-Oxo-2-(2-(3,4,5-trimethoxyphenyl)hydrazinylidene)butanoic acid]	34.8 ± 1.3	48.2 ± 0.9	28.8 ± 2.9	27.1 ± 1.2	92	150 to 152	
CC(=O)/C(=N/Nc1ccc([N+](=O)[O-])cc1)C(=O)O [Compound 5d, (2Z)-3-Oxo-2-(2-(4-nitrophenyl)hydrazinylidene)butanoic acid]	73.7 ± 0.8	53.6 ± 1.8	45.3 ± 1.7	48.6 ± 1.6	57		
CC(=O)/C(=N/Nc1cccc(Cl)c1)C(=O)O [Compound 5c, (2Z)-3-Oxo-2-(2-(3-chlorophenyl)hydrazinylidene)butanoic acid]	69 ± 4.6	30.3 ± 0.4	41.1 ± 0.7	22.9 ± 1.3	87		
C=CS(=O)(=O)c1ccccc1 [PVS, Phenyl vinyl sulfone, reference compound]							IC50 (S. aureus SrtA; 10 µM S. aureus sortase A, preincubated 1 h at 37 °C, 50 µM dabcyl-QALPETGEE-edans substrate, read-out: IC50 (activity as sortase A inhibitors)): 736 µM
CCOC(=O)/C(=N\Nc1ccc([N+](=O)[O-])cc1)C(C)=O [Compound 1d, Ethyl (2Z)-3-Oxo-2(2-(4-nitrophenyl)hydrazinylidene)butanoate]					100	120 to 122	
CCOC(=O)/C(=N/Nc1ccc(C)cc1)C(C)=O [Compound 1f, Ethyl (2E)-3-Oxo-2-(2-(4-methylphenyl)hydrazinylidene)butanoate]					> 500		
CCOC(=O)/C(=N\Nc1ccc(Cl)c(Cl)c1)C(=O)c1ccccc1						96 to 98	
CCOC(=O)/C(=N/Nc1ccccc1)C(C)=O [Compound 1a, Ethyl (2E)-3-Oxo-2-(2-phenylhydrazinylidene)butanoate]					192	78 to 80	
CCOC(=O)/C(=N/Nc1cccc(Cl)c1)C(C)=O [Compound 1c, Ethyl (2E)-3-Oxo-2(2-(3-chlorophenyl)hydrazinylidene)butanoate]					> 500	70 to 72	
O=C(O)/C(=N\Nc1ccc(Cl)c(Cl)c1)C(=O)c1ccccc1 [Compound 5h, (2Z)-3-Oxo-2-(2-(3,4-dichlorophenyl)hydrazinylidene)-3-phenylpropanoic acid]	42.7 ± 3.7	70.1 ± 2.1	55.9 ± 2.6	45.4 ± 1.6	100	202 to 204	
